Source: patent publication US5380834A, “Immuno-suppressive agent” (Ishihara Sangyo Kaisha Ltd., priority 1992, dated 1995)
Values after ≈ are worked out from the molar mass of the structure shown. Read-outs that look alike come from different tables or passages of the source.

Key:
[1] = tested on: IgM antibody production from murine spleen B cells; assay: Effects on the IgM antibody production from murine spleen cells (LPS + IL4); type: cell-based, BALB/c mouse; details: Mus musculus, B-cell, 168 h, read-out: IC50 value, IgM antibody production
Experimental: (§1) Using murine spleen B cells, the effects of the compound of the formula (I) on the IgGl, IgM and IgE antibody production induced by the stimulation by LPS (lipopolysaccharide; Product No. 520.02051, manufactured by Wako Junyaku) and IL4 (interleukin 4), were studied. Namely, spleen cells of a BALB/c mouse were treated with a murine anti-Thy-1 antibody (obtained from Chiba University) and a rabbit complement (Product No. 3051, manufactured by cedarlane) to remove T cells, and 3×10^5 spleen B cells were cultured for 7 days together with 10 μg/ml of LPS, 100 U/ml of mouse-recombinant IL4 (Product No. MIL-4C, manufactured by Genzyme) and each concentration (from […]) of the compound of the formula (I) on a microplate with 96 wells by a 10% FCS-RPMI solution (in an incubator, 5% CO2, at 37° C.).
(§2) For the basic procedure of this test, reference was made to The Journal of Immunology, Vol. 136, p. 4538, (1986).
(§3) The amount of each antibody in the cell culture supernatant hereby obtained, was measured by the following enzyme-immunoassay. Firstly, on a microplate with 96 wells, 1 μg/ml of a rabbit anti-mouse IgGl antibody (Product No. 36243, manufactured by Cappel), 1 μg/ml of a goat anti-mouse IgM antibody (Product No. 0611-0201, manufactured by Cappel) or 10 μg/ml of a rat anti-mouse IgE monoclonal antibody (Product No. LO-ME-2, manufactured by Experimental Immunology) was coated (50 μl/well, at room temperature for 60 minutes), and then a nonspecific bond was blocked by a 0.1% bovine serum albumin-containing 10 mM sodium phosphate buffer (pH 7.2) (at room temperature for 60 minutes). Then, the above-mentioned cell culture supernatant or its diluted solution was added in an amount of 50 μl/well and reacted at room temperature for 60 minutes. Further, an alkaline phosphatase-labeled rabbit anti-mouse IgGl antibody (Product No. 61-0122, manufactured by Zymet) diluted 1,000 times, an alkaline phosphatase-labeled rabbit anti-mouse IgM antibody (Product No. 61-6822, manufactured by Zymet) diluted 2,000 times, or an alkaline phosphatase-labeled goat anti-mouse IgE antibody (Product No. PA-284, manufactured by Binding Site) diluted 500 times was added in an amount of 50 μl/well and reacted at room temperature for 60 minutes. 100 μl/well of a 10% diethanol amine buffer solution (pH 9.8) containing p-nitrophenyl phosphate as an enzyme substrate, was reacted, and the absorbance at 405 nm was measured. The amount of each antibody was calculated from the calibration curve of each standard antibody, and the IC50 value of the compound of the formula (I) on the antibody production was calculated using as the control value a value obtained in the absence of the compound of the formula (I).

murine bone mallow cells = assay: Effects on the murine bone mallow cells (proliferation, 3H-TdR uptake); type: cell-based, BALB/c mouse; details: Mus musculus
Experimental: Bone mallow cells were removed from the femur of a BALB/c mouse and suspended in a 10% FCS-RPMI solution. The cell suspension was put into a plastic Petri dish having a diameter of 10 cm and left to stand still (in an incubator, 5% CO2, at 37° C.). Two hours later, only floating cells were recovered, and adhesion cells were removed. 1×10^5 floating cells were cultured for 48 hours together with a 20% culture supernatant of L929 fibroblastoma and the compound of the formula (I) on a microplate with 96 wells by a 10% FCS-RPMI solution (in an incubator, 5% CO2, at 37° C.). Then, 0.5 μCi of ^3 H-TdR was added thereto, and the mixture was further cultured for 4 hours. Then, cells were collected by a cell harvester, and the radioactivity (dpm) of ^3 H-TdR uptaken into the cells, was measured. Such measured amounts of ^3 H-TdR uptaken into the cells were used as indices for the proliferation of bone mallow cells, and the radioactivity at each concentration (from 0.001 to 1,000 μg/ml) of the compound of the formula (I) was compared with the control value where the L929 culture supernatant was added alone, to calculate the IC50 value. In these Tables 12 and 13, the results of the bone mallow cells are shown by (c).
For the basic procedure of this test, reference was made to Seikagakujikken Koza compiled by Japan Biochemistry Association, Vol. 5, p. 266-270 (published by Tokyo Kagaku Dojin in 1986).

[2] = tested on: IgE antibody production from murine spleen B cells; assay: Effects on the IgE antibody production from murine spleen cells (LPS + IL4); type: cell-based, BALB/c mouse; details: Mus musculus, B-cell, 168 h, read-out: IC50 value, IgE antibody production
Experimental: as §1, §2, §3

[3] = tested on: murine mixed lymphocyte reaction (spleen cells of BALB/c and C57BL/6 mice); assay: Effects on the murine mixed lymphocyte reaction (3H-TdR uptake); type: cell-based; details: Mus musculus, BALB/c + C57BL/6 spleen cells, 48 hours, read-out: IC50 value, b (murine mixed lymphocyte reaction)
Experimental: Using spleen cells of BALB/c and C57BL/6 mice, the effect of the compound of the formula (I) on the murine mixed lymphocyte reaction in both sides, was studied. Namely, spleen cells of both types of mice were mixed in an equal amount of 5×10^5 cells each, and the mixed cells were cultured together with the compound of the formula (I) for 48 hours on a microplate with 96 wells by a 10% FCS-RPMI solution (in an incubator, 5% CO2, at 37° C.). Then, 0.5 μCi of ^3 H-TdR was added thereto, and the mixture was further cultured for from 16 to 18 hours. Then, cells were collected by a cell harvester, and the radioactivity (dpm) of ^3 H-TdR uptaken into the cells, was measured. Such measured amounts of ^3 H-TdR uptaken into the cells were used as indices for the mixed lymphocyte reaction, and the radioactivity at each concentration (from 0.001 to 1,000 μg/ml) of the compound of the formula (I) was compared with the non-treated control value, to calculate the Ic50 value.
For the basic procedure for this test, reference was made to Selected methods in cellular immunology, p. 147-149 (translated by Katsuyuki Imai et al., published by Rikogakusha, (1982)).

murine thymocytes = assay: Effects on the mitogenic response by murine thymocytes (Con A stimulation, 3H-TdR uptake); type: cell-based, BALB/c murine; details: Mus musculus, Thymocyte, read-out: IC50 value, a (mitogenic response of murine thymocytes)
Experimental: Using BALB/c murine thymocytes, the effect of the compound of the formula (I) on the mitogenic response of lymphocytes to the stimulation by concanavalin A (hereinafter referred to simply as Con A, Product No. L-1000, manufactured by Vector Laboratories) was studied. Namely, 4×10^5 murine thymocytes were cultured for 48 hours on a microplate with 96 wells in a RPMI1640 solution containing 10% of a fetal bovine serum (hereinafter referred to simply as a 10% FCS-RPMI solution) together with Con A (5 μg/ml) and the compound of the formula (I) (in an incubator, 5% CO2, at 37° C.). Then, 0.5 μCi of ^3 H-thymidine (hereinafter referred to simply as ^3 H-TdR) was added thereto, and the mixture was further cultured for 4 hours. Then, cells were collected by a cell harvester, and the radioactivity (dpm) of ^3 H-TdR uptaken into cells was measured. Such measured amounts of ^3 H-TdR uptaken into the cells were used as indices of the mitogenic response of the murine thymocytes, and the radioactivity at each concentration (from 0.001 to 1,000 μg/ml) of the compound of the formula (I) was compared with the control value treated solely by Con A, to calculate IC50 value. In these Tables 12 and 13, the results of murine thymocytes are shown by (a).
For the basic procedure of this test, reference was made to Selected methods in cellular immunology, p. 144-146 (translated by Katsuyuki Imai et al., published by Rikogakusha, (1982)).

[4] = tested on: IgGl antibody production from murine spleen B cells; assay: Effects on the IgGl antibody production from murine spleen cells (LPS + IL4); type: cell-based, BALB/c mouse; details: Mus musculus, B-cell, 168 h, read-out: IC50 value, IgGl antibody production
Experimental: as §1, §2, §3

[5] = spleen B cells, LPS 10 μg/ml, IL4 100 U/ml, 7 days, enzyme-immunoassay
[6] = bone marrow cells, 20% L929 culture supernatant, 48 hours, 3H-TdR uptake, Tables 12-15, read-out: IC50 value, c (murine bone mallow cells)
[7] = BALB/c thymocytes, Con A 5 μg/ml, 48 hours, 3H-TdR uptake

Compound | IC50 [1, 5] | IC50 (murine bone mallow cells; [6]) | IC50 [2, 5] | IC50 [3] | IC50 (murine thymocytes; [7]) | IC50 [4, 5] | IC50 [1] | IC50 (murine bone mallow cells; L929, read-out: IC50 value, c (murine bone mallow cells)) | IC50 [2] | IC50 (murine thymocytes) | IC50 [4]
CC(C)CC(=O)O[C@H]1C=C[C@H]2CO[C@@H]1O2 [Compound 2, 1,6-anhydro-3,4-dideoxy-2-O-isovaleryl-β-D-threo-hex-3-enopyranose] | 250 µg/mL | > 1000 µg/mL | 370 µg/mL | 560 µg/mL | 350 µg/mL (≈ 1650 µM) | 300 µg/mL |  |  |  |  | 
C/C=C/C(=O)O[C@H]1C=C[C@H]2CO[C@@H]1O2 [Compound 3] | < 0.001 µg/mL | 130 µg/mL (≈ 663 µM) | 0.024 µg/mL | 0.0044 µg/mL | 0.0044 µg/mL (≈ 0.0224 µM) | 2.4 µg/mL |  |  |  |  | 
O=C(O[C@H]1C=C[C@H]2CO[C@@H]1O2)C1CCCCC1 [Compound 4] | 56 µg/mL | 160 µg/mL (≈ 671 µM) | 11 µg/mL | 140 µg/mL | 450 µg/mL (≈ 1890 µM) | 100 µg/mL |  |  |  |  | 
O=C(O[C@H]1C=C[C@H]2CO[C@@H]1O2)c1ccccc1 [Compound 5] | 170 µg/mL | 150 µg/mL (≈ 646 µM) | 71 µg/mL | 130 µg/mL | 130 µg/mL (≈ 560 µM) | 300 µg/mL |  |  |  |  | 
CCCCCC(=O)O[C@H]1C=C[C@H]2CO[C@@H]1O2 [Compound 6] | 330 µg/mL | 270 µg/mL (≈ 1190 µM) | 210 µg/mL | 540 µg/mL | 250 µg/mL (≈ 1100 µM) | 450 µg/mL |  |  |  |  | 
CCCCCCCCCCCCCCCC(=O)O[C@H]1C=C[C@H]2CO[C@@H]1O2 [Compound 7] | 410 µg/mL | 89 µg/mL (≈ 243 µM) | 180 µg/mL | 76 µg/mL | 49 µg/mL (≈ 134 µM) | 330 µg/mL |  |  |  |  | 
CCCCCCCC/C=C\CCCCCCCC(=O)O[C@H]1C=C[C@H]2CO[C@@H]1O2 [Compound 8] | 340 µg/mL | > 1000 µg/mL | 310 µg/mL |  |  | 810 µg/mL |  |  |  |  | 
CC(=O)O[C@H]1C=C[C@H]2CO[C@@H]1O2 [Compound 9] | 720 µg/mL | > 1000 µg/mL | 320 µg/mL |  |  | 790 µg/mL |  |  |  |  | 
O=C(CCl)O[C@H]1C=C[C@H]2CO[C@@H]1O2 [Compound 10] | < 0.001 µg/mL | 68 µg/mL (≈ 332 µM) | < 0.001 µg/mL | 18 µg/mL | 1.4 µg/mL (≈ 6.84 µM) | < 0.001 µg/mL |  |  |  |  | 
CC(=O)Oc1ccccc1C(=O)O[C@H]1C=C[C@H]2CO[C@@H]1O2 [Compound 11] | 28 µg/mL | 210 µg/mL (≈ 723 µM) | 32 µg/mL | 170 µg/mL | 110 µg/mL (≈ 379 µM) | 16 µg/mL |  |  |  |  | 
CCCCCCCCCC(=O)O[C@H]1C=C[C@H]2CO[C@@H]1O2 [Compound 12, 1,6-anhydro-2-O-decanoyl-3,4-dideoxy-β-D-threo-hex-3-enopyranose] | 0.11 µg/mL | 560 µg/mL (≈ 1980 µM) | 28 µg/mL | 560 µg/mL | 110 µg/mL (≈ 390 µM) | 24 µg/mL |  |  |  |  | 
O=C(CCCCCBr)O[C@H]1C=C[C@H]2CO[C@@H]1O2 [Compound 13] | < 0.001 µg/mL | 330 µg/mL (≈ 1080 µM) | 0.32 µg/mL | 190 µg/mL | 33 µg/mL (≈ 108 µM) | < 0.001 µg/mL |  |  |  |  | 
O=C(/C=C/c1ccccc1)O[C@H]1C=C[C@H]2CO[C@@H]1O2 [Compound 18] | 0.68 µg/mL | 370 µg/mL (≈ 1430 µM) | < 0.001 µg/mL |  |  | < 0.001 µg/mL |  |  |  |  | 
Nc1ccccc1C(=O)O[C@H]1C=C[C@H]2CO[C@@H]1O2 [Compound 19] |  |  |  |  |  |  | 76 µg/mL | 160 µg/mL (≈ 647 µM) | 32 µg/mL | 0.39 µg/mL (≈ 1.58 µM) | 24 µg/mL
COC(=O)O[C@H]1C=C[C@H]2CO[C@@H]1O2 [Compound 21, 1,6-anhydro-3,4-dideoxy-2-O-methoxycarbonyl-β-D-threo-hex-3-enopyranose] | 130 µg/mL | > 1000 µg/mL | 17 µg/mL |  |  | 500 µg/mL |  |  |  |  | 
CCCCCCCCCCCCCCCC(=O)O[C@@]1(C)C=C[C@H]2CO[C@@H]1O2 [Compound 33] | 5.6 µg/mL | > 1000 µg/mL | 460 µg/mL |  |  | 340 µg/mL |  |  |  |  | 
CO[C@H]1C=C[C@H]2CO[C@@H]1O2 [Compound 41, 1,6-anhydro-3,4-dideoxy-2-O-methyl-β-D-threo-hex-3-enopyranose] | > 1000 µg/mL | > 1000 µg/mL | 0.95 µg/mL |  |  | 670 µg/mL |  |  |  |  | 
